From ChEMBL document CHEMBL1126104, “Synthesis and antiviral activity of some new S-adenosyl-L-homocysteine derivatives” (1992) come the findings set out here.

≈ marks a conversion by molar mass, not a printed value. Where only a bound is given, the exact number is not on record here.

In assay [1] the test system is Human immunodeficiency virus 1. Put plainly: Antiviral activity against (HIV-1) in MT-4 cells Value in parentheses is inhibitory concentration for cell growth (MT-4). The format is functional, MT4.
The next assay concerns Human alphaherpesvirus 2. Description: Antiviral activity against HSV-2(G) strain in primary rabbit kidney (PRK) / embryonic skin-muscle (E6SM) fibroblast culture lines. The format is functional. The settings on record: Human alphaherpesvirus 2, Muscle tissue.
Assay [2] concerns Coxsackievirus B4. Description: Antiviral activity against coxsackie B4 in Vero cell culture lines. The settings on record: Enterovirus B. The format is functional.
Assay [3] concerns Coxsackievirus B4. Put plainly: Antiviral activity against coxsackie B4 virus in HeLa cell culture lines. The format is functional. The settings on record: Enterovirus B.
The next assay concerns Semliki Forest virus. Put plainly: Antiviral activity against semliki forest virus (SFV) in Vero cell culture lines. It counts as functional.
In assay [4] the test system is Vesicular stomatitis virus. Description: Antiviral activity against vesicular stomatitis virus (VSV) in HeLa cell culture lines,. The format is functional.
For assay [5], the system named is Vesicular stomatitis virus. Description: Antiviral activity against vesicular stomatitis virus (VSV) in primary rabbit kidney (PRK) / embryonic skin-muscle (E6SM) fibroblast culture lines. The format is functional. The settings on record: Muscle tissue.
The subject of another assay is Vaccinia virus. Put plainly: Antiviral activity against vaccinia virus (VV) in primary rabbit kidney (PRK) / embryonic skin-muscle (E6SM) fibroblast culture lines. The settings on record: Orthopoxvirus vaccinia, Muscle tissue. The format is functional.
A further assay relates to Human alphaherpesvirus 1. Description: Antiviral activity against HSV-1(KOS) strain in primary rabbit kidney (PRK) / embryonic skin-muscle (E6SM) fibroblast culture lines. The format is functional. The settings on record: Human alphaherpesvirus 1, Muscle tissue.
Another assay concerns Poliovirus 1. Description: Antiviral activity against polio virus type 1 in HeLa cell culture lines. It counts as functional. The settings on record: Enterovirus C.
A further assay deals with Human respirovirus 3. Description: Antiviral activity against parainfluenza virus type 3 in Vero cell culture lines. It counts as functional.
Another assay has as its system Sindbis virus. Put plainly: Antiviral activity against sindbis virus in Vero cell culture lines. The format is functional.
For assay [6], the system named is Mammalian orthoreovirus 1. Put plainly: Antiviral activity against reovirus type 1 in Vero cell culture lines. It counts as functional.

Take `Nc1ncnc2c1ncn2[C@@H]1O[C@H](CSCCC(N)C(=O)O)C[C@H]1O` (some centres not stated): the MIC is above 100 µg/mL in assay [1]; above 100 µg/mL with Human alphaherpesvirus 2; above 200 µg/mL in the assay with Coxsackievirus B4 [2]; above 200 µg/mL with Coxsackievirus B4 [3]; above 100 µg/mL with Semliki Forest virus; above 200 µg/mL in [4]. Moreover, the MIC in assay [5] was above 100 µg/mL; with Vaccinia virus, above 200 µg/mL; in the assay on Human alphaherpesvirus 1 it was above 100 µg/mL; against Poliovirus 1, above 200 µg/mL; against Human respirovirus 3 it was above 200 µg/mL; in the assay with Sindbis virus, above 200 µg/mL. The same compound came in with an MIC in assay [6] above 200 µg/mL.
For `Nc1nccc2c1ncn2[C@@H]1O[C@H](CSCCC(N)C(=O)O)C[C@H]1O` (some centres not stated), the MIC was above 100 µg/mL in assay [1]; above 400 µg/mL against Human alphaherpesvirus 2; above 400 µg/mL with Coxsackievirus B4 [2]; above 400 µg/mL with Coxsackievirus B4 [3]; above 400 µg/mL in the assay with Semliki Forest virus; above 400 µg/mL in [4]. Moreover, the MIC in [5] was above 200 µg/mL; with Vaccinia virus it was above 400 µg/mL; with Human alphaherpesvirus 1 it was above 400 µg/mL; in the assay on Poliovirus 1, above 400 µg/mL; in the assay with Human respirovirus 3, above 400 µg/mL; in the assay on Sindbis virus it was above 400 µg/mL. The MIC in assay [6] was above 400 µg/mL.
As to `CC(C)(C)C(=O)OCn1nc([C@@H]2O[C@H](CO)[C@@H](O)[C@H]2O)c2ncnc(N)c21`, the MIC was above 0.8 µg/mL in assay [1]; above 40 µg/mL in the assay on Human alphaherpesvirus 2; above 10 µg/mL in the assay on Coxsackievirus B4 [2]; above 40 µg/mL in the assay on Coxsackievirus B4 [3]; above 10 µg/mL against Semliki Forest virus; 30 µg/mL (≈ 78.7 µM) in [4]. Further, the MIC in [5] was 30 µg/mL (≈ 78.7 µM); with Vaccinia virus, above 40 µg/mL; in the assay on Human alphaherpesvirus 1, 30 µg/mL (≈ 78.7 µM); in the assay with Poliovirus 1, above 40 µg/mL; in the assay on Human respirovirus 3, 1 µg/mL (≈ 2.62 µM); in the assay on Sindbis virus, above 10 µg/mL. In assay [6], this compound gave an MIC of 3 µg/mL (≈ 7.87 µM).
`Nc1ncnc2c1ccn2C1O[C@H](CSCCC(NC(=O)C(F)(F)F)C(=O)O)[C@@H](O)[C@H]1O` (some centres not stated): the MIC is above 20 µg/mL in [1]; above 200 µg/mL with Human alphaherpesvirus 2; above 400 µg/mL in the assay on Coxsackievirus B4 [2]; above 400 µg/mL with Coxsackievirus B4 [3]; above 400 µg/mL in the assay on Semliki Forest virus; above 400 µg/mL in [4]. The MIC was above 200 µg/mL in assay [5]; 20 µg/mL (≈ 41.7 µM) against Vaccinia virus; above 200 µg/mL with Human alphaherpesvirus 1; above 400 µg/mL against Poliovirus 1; above 400 µg/mL with Human respirovirus 3; above 400 µg/mL in the assay with Sindbis virus. In assay [6], the MIC is above 400 µg/mL.
Turning to `CCOC(=O)C(CCSC[C@H]1OC(n2ccc3c(N)ncnc32)[C@H](O)[C@@H]1O)NC(=O)C(F)(F)F` (some centres not stated), the MIC was above 4 µg/mL in assay [1]; 10 µg/mL (≈ 19.7 µM) against Human alphaherpesvirus 2; 7 µg/mL (≈ 13.8 µM) in the assay on Coxsackievirus B4 [2]; 20 µg/mL (≈ 39.4 µM) with Coxsackievirus B4 [3]; above 40 µg/mL with Semliki Forest virus; 4 µg/mL (≈ 7.88 µM) in assay [4]. The MIC in assay [5] was 2 µg/mL (≈ 3.94 µM); in the assay with Vaccinia virus it was 7 µg/mL (≈ 13.8 µM); in the assay on Human alphaherpesvirus 1, 7 µg/mL (≈ 13.8 µM); against Poliovirus 1, 20 µg/mL (≈ 39.4 µM); against Human respirovirus 3, above 20 µg/mL; against Sindbis virus, above 20 µg/mL. The MIC in assay [6] was above 20 µg/mL.
In the case of `CC(C)(C)C(=O)ONC(CCSC[C@H]1OC(n2ccc3c(N)ncnc32)[C@H](O)[C@@H]1O)C(=O)O` (some centres not stated), the MIC in [1] is above 200 µg/mL; in the assay on Human alphaherpesvirus 2, above 100 µg/mL; with Coxsackievirus B4 [2], above 400 µg/mL; against Coxsackievirus B4 [3], above 400 µg/mL; with Semliki Forest virus, above 400 µg/mL; in [4], above 400 µg/mL. The MIC was above 100 µg/mL in assay [5]; 20 µg/mL (≈ 41.4 µM) in the assay on Vaccinia virus; above 100 µg/mL with Human alphaherpesvirus 1; above 400 µg/mL against Poliovirus 1; above 400 µg/mL with Human respirovirus 3; above 400 µg/mL in the assay on Sindbis virus. The compound also registered an MIC in assay [6] above 400 µg/mL.
As to `Nc1ncnc2c1ncn2[C@@H]1O[C@H](CO)C[C@H]1O` [CORDYCEPIN], the MIC is above 4 µg/mL in [1]; above 40 µg/mL in the assay on Human alphaherpesvirus 2; above 100 µg/mL against Coxsackievirus B4 [2]; above 100 µg/mL in the assay on Coxsackievirus B4 [3]; above 100 µg/mL in the assay on Semliki Forest virus; above 100 µg/mL in [4]. Also, the MIC in assay [5] was above 40 µg/mL; against Vaccinia virus, above 100 µg/mL; with Human alphaherpesvirus 1 it was above 40 µg/mL; with Poliovirus 1 it was above 100 µg/mL; in the assay on Human respirovirus 3, above 100 µg/mL; in the assay with Sindbis virus, above 100 µg/mL. In [6], this compound showed an MIC above 100 µg/mL.
Turning to `Nc1ncnc2c1ncn2[C@H]1C[C@H](O)[C@@H](CO)O1` [DEOXYADENOSINE], the MIC was above 20 µg/mL in assay [1]; 100 µg/mL (≈ 398 µM) in the assay with Human alphaherpesvirus 2; above 200 µg/mL in the assay on Coxsackievirus B4 [2]; above 200 µg/mL in the assay with Coxsackievirus B4 [3]; above 200 µg/mL against Semliki Forest virus; above 200 µg/mL in assay [4]. Moreover, the MIC in assay [5] was above 200 µg/mL; against Vaccinia virus, 150 µg/mL (≈ 597 µM); with Human alphaherpesvirus 1, above 150 µg/mL; against Poliovirus 1, above 200 µg/mL; with Human respirovirus 3, above 200 µg/mL; with Sindbis virus, above 200 µg/mL. The MIC in [6] is above 200 µg/mL.
`NC(=O)c1ncn([C@@H]2O[C@H](CO)[C@@H](O)[C@H]2O)n1` [RIBAVIRIN]: the MIC was above 20 µg/mL in [1]; above 400 µg/mL in the assay with Human alphaherpesvirus 2; above 70 µg/mL with Coxsackievirus B4 [2]; 40 µg/mL (≈ 164 µM) against Coxsackievirus B4 [3]; 200 µg/mL (≈ 819 µM) in the assay with Semliki Forest virus; 20 µg/mL (≈ 81.9 µM) in assay [4]. Further, the MIC in assay [5] is 50 µg/mL (≈ 205 µM); with Vaccinia virus, 30 µg/mL (≈ 123 µM); against Human alphaherpesvirus 1, above 400 µg/mL; against Poliovirus 1, 70 µg/mL (≈ 287 µM); against Human respirovirus 3, 70 µg/mL (≈ 287 µM); against Sindbis virus it was 200 µg/mL (≈ 819 µM). In assay [6], this compound displayed an MIC of 40 µg/mL (≈ 164 µM).
